Results reported in publication PMC6711177, “Sorafenib-loaded hydroxyethyl starch-TG100-115 micelles for the treatment of liver cancer based on synergistic treatment” (Drug Delivery, 2019).

Key:
[1] = test system: Hep-3B-xenografted nude mouse model; assay: In vivo anti-tumor activity and safety in Hep-3B-xenografted nude mouse model; conditions: Hep-3B nude mouse, TG100-115 30 mg/kg and/or sorafenib 20 mg/kg; for IRT (tumor inhibition rate): versus normal saline
Experimental: The in vivo anti-tumor activity and safety of the prepared micelles was investigated by using Hep-3B-xenografted nude mouse model. The mice were randomly divided into six groups (n = 6) when the tumor volumes reached around 150 mm^3. The tumor-bearing mice were treated with non-targeted micelles solution, targeted micelle solution, TG100-115 solution, sorafenib solution, mixed sorafenib/TG100-115 solution and normal saline. […] The mice were sacrificed on day 28. Thereafter, the tumors were totally excised and precisely weighed. The tumor inhibitory rates were calculated using the formula: Tumor inhibition rate (%) = (Vblank −Vsample)/Vblank × 100%, Vblank, and Vsample represent the tumor volumes in the blank and test, reference group respectively.

in vivo = assay: in vivo; set-up: species or system Sprague-Dawley rats; conditions: rat, iv
Experimental: Sprague-Dawley rats were randomly divided into three groups and each group contains 6 rats. The prepared micelles solution was injected through femoral vein and the dose was 20 mg/kg (sorafenib) and 30 mg/kg (TG100-115). Free sorafenib and TG100-115 solutions were used as reference and the dose is same as the micelles group. After the end of administration, appropriate blood was obtained from the retro-orbital sinus at preselected time intervals (5, 10, 15, 30, 60 min, 2, 4, 6, 8, 12, 24, 48 and 72 h). Then, the blood was centrifuged at 3500 rpm for 10 min to acquire final plasma.
The plasma concentration of sorafenib and TG100-115 was measured using a validated HPLC-MS/MS method. The specific conditions are as follows: poroshell 120 poroshell-C18 column (50 mm × 4.6 mm, 2.7 μm, Agilent) was chosen as an analytical column, and the column temperature was 40 °C. The mobile phase comprised acetonitrile and 10 mmol/L ammonium acetate containing 0.1% formic acid, and the flow rate was 0.7 mL/min. Imatinib and naproxen were chosen as internal standard (IS) to improve the accuracy of the measurement. The ion ionization of sorafenib and imatinib was positive ion ionization, while TG100-115 and naproxen were negative ion ionization. The specific MS parameters of analytes were shown in S1 (Supplemental 1).
Plasma samples are processed according to the standard operating practices described below. Briefly, add 150.0 μL of plasma sample and 20.0 μL of the IS solution in a 2.0 mL EP tube. Then, the solution was vortexed for 1.0 min and added 300 μL of ice acetonitrile to precipitate protein. After vortexing for 1.0 min, the solution was centrifuged at 15000 rpm for 10 min. After that, 150 μL of supernatant was collected for quantitative analysis.

[2] = set-up: method as in Hsu et al., 2018; Wang et al., 2018; conditions: checkpoint inhibitor alone only 20%, ref Hsu et al., 2018, Wang et al.; cited from earlier work
[3] = twice a week for 4 weeks, day 28

AUC(0-inf) (in vivo; Sprague-Dawley, 20 mg/kg)	AUC(0-t) (in vivo; Sprague-Dawley, 20 mg/kg)	Cmax (in vivo; Sprague-Dawley, 20 mg/kg)	Tmax (in vivo; Sprague-Dawley, 20 mg/kg)	clearance (in vivo; Sprague-Dawley, 20 mg/kg)	half-life (in vivo; Sprague-Dawley, 20 mg/kg)	SMILES	Body weight Final [1, 3]	Tumor weight [1, 3]	IRT (tumor inhibition rate) [1, 3]	Body weight Initial ([1]; before treatment)	efficiency of checkpoint inhibitor in the treatment of immune-tolerant mice when combined with TG100-115 [2]	CLz of TG100-115 (in vivo; 30 mg/kg)
78.6 ± 20.6 ng·h/mL	74.5 ± 18.7 ng·h/mL	17.3 ± 3.2 ng/mL	0.167 ± 0.073 h	423 mL/min/kg	8.8 ± 1.4 h	CNC(=O)c1cc(Oc2ccc(NC(=O)Nc3ccc(Cl)c(C(F)(F)F)c3)cc2)ccn1 [Sorafenib]	34.2 g	2.48 ± 0.36 g	46.09%	23.6 g	–	–
–	–	–	–	–	–	Nc1nc(N)c2nc(-c3cccc(O)c3)c(-c3cccc(O)c3)nc2n1 [TG100-115]	–	2.72 ± 0.31 g	40.87%	–	80%	545 ± 91.7 mL/min/kg
